No end group written: not given here.
Assays:
Type in all cases: in vivo, mice
RKO-DR tumors = assay: MRMI of EDB-FN with MT218, RKO-DR xenografts
Experimental: Nude athymic mice (6-week-old nu/nu females) were purchased from The Jackson Laboratory (Bar Harbor, […]) and housed in the Animal Facility at CWRU. All the animal experiments were performed according to the protocol approved by the IACUC of CWRU. For assessment of drug resistance, 2 drug-resistant and 2 non-drug-resistant models were set up. About 3-4×10^6 DLD-1, RKO, DLD1-DR, and RKO-DR cells suspended in Matrigel-PBS mixture (1:1) were subcutaneously injected in the left flanks of nude mice (100 μL per mouse, 5 mice per group×4 models=20 mice). After 9 days when the tumors reached 100-200 mm3, MRMI was performed on the 4 xenograft models with 40 μmol/kg dose of MT218. The animals were then euthanized, and the tumors were harvested for post-mortem histology and IHC.
MT218 was synthesized as previously described. Ayat, N. R., et al., ACS Med Chem Lett, 2018. 9(7): p. 730-735. Briefly, click reaction between alkynyl-ZD2 and N3-Gd(HP-DO3A) was performed in the presence of CuSO4 and ascorbate at room temperature, followed by FLASH chromatography purification and validation of MT218 by MALDI-TOF mass spectrometry (m.w. 1443). For assessment of drug resistance and therapeutic monitoring, MRMI was performed in a 3T MRS 3000 scanner (MR Solutions, Surrey, UK) with a mouse short quad coil. The mice were anesthetized with isofluorane and tail vein catheter was setup. T1-weighted MR images were obtained before (pre-contrast) and 25 min after injection (post-contrast) of 40 μmol/kg dose of MT218 [ZD2-N3—Gd(HP-DO3A)]. The following two sequences were used with respiratory gating: axial fast spin echo (FSE) (TR=305 ms, TE=11 ms, FA=90°, FOV=40 mm×40 mm, slice thickness=1 mm, slice number=15, Nav=2, matrix=256×256) and coronal FSE (TR=305 ms, TE=11 ms, FA=90°, FOV=90 mm×90 mm, slice thickness=1 mm, slice number=20, Nav=1, matrix=248×512). […] Contrast-to-noise ratios (CNRs) were calculated as (mean tumor intensity—mean muscle intensity)/standard deviation of noise. […]

SCC4 tumors = assay: MRMI of OSCC flank xenografts, SCC4; settings: MT218 0.04 mmol/kg
Experimental: Animal experiments were performed under an animal protocol approved by the Institutional Animal Care and Use Committee (IACUC) at Case Western Reserve University (CWRU, Cleveland, OH, USA). Female 4-week-old athymic nude mice purchased from the Jackson Laboratory (Bar Harbor, ME, USA) were housed in the Animal Core Facility at CWRU. Anesthetized mice were subcutaneously inoculated in the right flank with 4×10^6 GFP/luciferase-expressing OSCC cells (n=5 per cell line) in 100 μL of a 1:1 mixture of Matrigel HC (Corning) and DPBS. Tumor size was monitored with caliper measurements. After 4 weeks of growth, tumors were sufficiently large for MRI experiments.
MRI experiments were performed with a 3T MRS-3000 system (MR Solutions, Surrey, UK). […] This protocol was repeated on the same mice 2 days later using the untargeted clinical agent gadoteridol at the clinical dose of 0.10 mmol/kg.
Images were exported in DICOM format and analyzed using FIJI. Contrast-to-noise ratio (CNR) for each time point was calculated as the difference between the mean tumor intensity and the mean muscle intensity, divided by the standard deviation of noise.

[1] = system: BxPC3-GFP-Luc intrapancreatic tumors; assay: MRMI of BxPC3-GFP-Luc intrapancreatic tumors
Experimental: For flank xenograft models, 4×10^6 Capan-1 cells suspended in 100 μL of a 6 mg/mL Matrigel (Corning, Corning, NY) solution was injected subcutaneously into the flank of eight-week-old female nu/nu mice. The tumor bearing mice were imaged after tumor volumes exceeded 300 mm^3. For orthotopic intrapancreatic models, the pancreas of four-week-old female nu/nu mice were surgically exposed and 1×10^6 BxPC3-GFP-Luc or PANC-1-GFP-Luc cells suspended in 100 μL of an Matrigel solution (6 mg/mL) was injected into the pancreatic tissue. Prior to imaging, growth of tumor was verified by bioluminescence imaging with intraperitoneal injection of d-luciferin on IVIS Spectrum system (Perkin Elmer, Waltham, MA).
Mice bearing intrapancreatic tumors were anesthetized and a tail vein catheter was inserted. Image acquisition was performed on a MR Solutions 3T MRS 3000 scanner with a mouse radiofrequency coil. Axial images were obtained using a Fast Spin Echo (FSE) MRI sequence (305 ms TR, 11 ms TE, 90° F.A, 4 cm×4 cm FOV, 1 mm slice thickness, 10 slices, echo train length=4, echo spacing=11 ms, 4 averages, 256×256 matrix, […] cm/pixel resolution) with respiratory gating. Images were acquired before contrast and at different time points after contrast injection at a dose of 0.1 mmol/kg (100 μL). For competitive binding experiments, a 5:1 molar ratio of free ZD2 peptide to MT218 was injected in mice bearing intrapancreatic BxPC3 tumor xenografts (n=3) at a dose of 0.1 mmol MT218/kg (100 μL). Images obtained on the MR Solutions 3T scanner were normalized using the Surscalereader.exe (MR Solutions, Guildford, UK) program supplied.
Image files were exported and analyzed in Horus software. ROIs were drawn in the tumor, liver, kidney, and muscle. Muscle ROIs were taken from muscle, with other structures (liver, kidney, tumor) identified after comparison with published images and comparison with anatomical landmarks or bioluminescent imaging. Size of ROIs drawn for image analysis are summarized in Supplemental Table S1. The contrast-to-noise ratio of the tumor (CNR) was calculated using the following equation, where σ_noise is the standard deviation of intensities from an ROI drawn outside of the mouse body:
Image contrast was reported as fold enhancement of contrast to noise ratio of postcontrast images over precontrast images using Fold Enhancement=CNRpost/CNRpre. Statistical analysis of CNR was performed in Minitab Express (Minitab Inc, State College, PA). One-way ANOVA with Fisher Individual Tests for Differences of Means post-hoc testing was performed to determine statistical significance between greater than two means (p<0.05). Student's T test was used to determine statistical significance between two means (p<0.05).

PC3-DR tumors = assay: MRMI with MT218, PC3-DR xenografts; settings: 0.04 mmol Gd/kg, 20 min post-injection, p=0.07
Text: Xenograft models were established by subcutaneous flank injections in athymic nu/nu mice for the 4 prostate cancer cells and tested with MRMI using 0.04 mmol Gd/kg of MT218.

[2] = RKO-DR over RKO tumors, 40 μmol/kg MT218

ZD2-N3-Gd(HP-DO3A) (TVRTSAD; also: conjugated to Gd(HP-DO3A) by click reaction of alkynyl-ZD2 with N3-Gd(HP-DO3A), residue of attachment not given here, Gd complex) [MT218, EDB-FN-targeted MRI contrast agent; ZD2 peptide conjugated to the clinical macrocyclic agent Gd(HP-DO3A)]
higher CNRs over the non-resistant tumors (RKO-DR tumors; [2]): 1.8 fold | increase in CNR over the non-resistant tumors (RKO-DR tumors; [2]): 84% | higher CNRs over pre-contrast (RKO-DR tumors; RKO-DR tumors, 40 μmol/kg MT218, 25 min post-injection): 2.6 fold | average maximum enhancement (CNR) (SCC4 tumors): 3.81±0.25 | tumor CNR increase ([1]; 0.1 mmol/kg, 10 min post-injection): 5.3 fold | CNR increase with co-injection of excess free ZD2 peptide ([1]; 5:1 molar ratio of free ZD2 peptide to MT218, 0.1 mmol MT218/kg): approximately 2.5 fold | CNR compared to the clinical agent Gd(HP-DO3A) ([1]; BxPC3-GFP-Luc): 212 % CNR of control | CNR increase with MT218 without the free peptide ([1]; competitive binding experiment, 0.1 mmol/kg): ca. 4.5 fold | CNR over the pre-contrast (PC3-DR tumors): 1.6 fold

Source: patent publication US20240374763A1, “DIAGNOSIS AND MONITORING USING EXTRADOMAIN-B FIBRONECTIN TARGETED PROBES” (Case Western Reserve University, priority 2020, published 2024)
